Values after ≈ are worked out from the molar mass of the structure shown. Active and inactive are the calls of the source. The rule behind the calls is not given here.
Columns and labels:
Type in all cases: functional
[1] = test system: Candida parapsilosis; assay: Antifungal activity against Candida parapsilosis ATCC 22019 after 24 hrs by twofold serial agar dilution technique
[2] = test system: Staphylococcus epidermidis; assay: Antibacterial activity against Staphylococcus epidermidis ATCC 35984 after 18 hrs by twofold serial agar dilution technique; settings: ATCC 35984, 18 h
[3] = test system: Staphylococcus aureus; assay: Antibacterial activity against Staphylococcus aureus ATCC 29213 assessed as zone of inhibition at 400 ug/disc after 18 hrs by disc diffusion method; settings: ATCC 29213, 18 h, read-out: DIZ
[4] = test system: Staphylococcus aureus; assay: Antibacterial activity against hospital-acquired methicillin-resistant Staphylococcus aureus 481/11 after 18 hrs by twofold serial agar dilution technique; settings: 481/11, 18 h
[5] = test system: Staphylococcus epidermidis; assay: Antibacterial activity against Staphylococcus epidermidis ATCC 12228 assessed as zone of inhibition at 400 ug/disc after 18 hrs by disc diffusion method; settings: ATCC 12228, 18 h, read-out: DIZ
[6] = test system: Proteus vulgaris; assay: Antibacterial activity against Proteus vulgaris NCTC 4635 after 18 hrs by twofold serial agar dilution technique
[7] = test system: Staphylococcus aureus; assay: Antibacterial activity against Staphylococcus aureus ATCC 6538 assessed as zone of inhibition at 400 ug/disc after 18 hrs by disc diffusion method; settings: ATCC 6538, 18 h, read-out: DIZ
[8] = test system: Staphylococcus aureus; assay: Antibacterial activity against Staphylococcus aureus NCTC 4163 assessed as zone of inhibition at 400 ug/disc after 18 hrs by disc diffusion method; settings: NCTC 4163, 18 h, read-out: DIZ
[9] = test system: Staphylococcus epidermidis; assay: Antibacterial activity against Staphylococcus epidermidis ATCC 12228 after 18 hrs by twofold serial agar dilution technique; settings: ATCC 12228, 18 h
[10] = test system: Staphylococcus aureus; assay: Antibacterial activity against hospital-acquired methicillin-sensitive Staphylococcus aureus 447/11 after 18 hrs by twofold serial agar dilution technique; settings: 447/11, 18 h
[11] = test system: Staphylococcus aureus; assay: Antibacterial activity against Staphylococcus aureus NCTC 4163 after 18 hrs by twofold serial agar dilution technique; settings: NCTC 4163, 18 h
[12] = test system: Staphylococcus aureus; assay: Antibacterial activity against hospital-acquired methicillin-sensitive Staphylococcus aureus 440/11 after 18 hrs by twofold serial agar dilution technique; settings: 440/11, 18 h
[13] = test system: Staphylococcus aureus; assay: Antibacterial activity against hospital-acquired methicillin-resistant Staphylococcus aureus 400/10 after 18 hrs by twofold serial agar dilution technique; settings: 400/10, 18 h
[14] = test system: Pseudomonas aeruginosa; assay: Antibacterial activity against Pseudomonas aeruginosa ATCC 27853 after 18 hrs by twofold serial agar dilution technique
[15] = test system: Staphylococcus aureus; assay: Antibacterial activity against hospital-acquired methicillin-sensitive Staphylococcus aureus 444/11 after 18 hrs by twofold serial agar dilution technique; settings: 444/11, 18 h
[16] = test system: Staphylococcus epidermidis; assay: Antibacterial activity against Staphylococcus epidermidis ATCC 35984 assessed as zone of inhibition at 400 ug/disc after 18 hrs by disc diffusion method; settings: ATCC 35984, 18 h, read-out: DIZ
[17] = test system: Bordetella bronchiseptica; assay: Antibacterial activity against Bordetella bronchiseptica ATCC 4617 after 18 hrs by twofold serial agar dilution technique
[18] = test system: Staphylococcus aureus; assay: Antibacterial activity against Staphylococcus aureus ATCC 25923 after 18 hrs by twofold serial agar dilution technique; settings: ATCC 25923, 18 h
[19] = test system: Staphylococcus aureus; assay: Antibacterial activity against hospital-acquired methicillin-sensitive Staphylococcus aureus 443/11 after 18 hrs by twofold serial agar dilution technique; settings: 443/11, 18 h
[20] = test system: Staphylococcus aureus; assay: Antibacterial activity against hospital-acquired methicillin-sensitive Staphylococcus aureus 441/11 after 18 hrs by twofold serial agar dilution technique; settings: 441/11, 18 h
[21] = test system: Staphylococcus aureus; assay: Antibacterial activity against hospital-acquired methicillin-sensitive Staphylococcus aureus 446/11 after 18 hrs by twofold serial agar dilution technique; settings: 446/11, 18 h
[22] = test system: Staphylococcus aureus; assay: Antibacterial activity against hospital-acquired methicillin-resistant Staphylococcus aureus 451/11 after 18 hrs by twofold serial agar dilution technique; settings: 451/11, 18 h
[23] = test system: Staphylococcus aureus; assay: Antibacterial activity against hospital-acquired methicillin-resistant Staphylococcus aureus 399/10 after 18 hrs by twofold serial agar dilution technique; settings: 399/10, 18 h
[24] = test system: Staphylococcus aureus; assay: Antibacterial activity against hospital-acquired methicillin-sensitive Staphylococcus aureus 442/11 after 18 hrs by twofold serial agar dilution technique; settings: 442/11, 18 h
[25] = test system: Staphylococcus aureus; assay: Antibacterial activity against hospital-acquired methicillin-sensitive Staphylococcus aureus 448/11 after 18 hrs by twofold serial agar dilution technique; settings: 448/11, 18 h
[26] = test system: Staphylococcus aureus; assay: Antibacterial activity against hospital-acquired methicillin-sensitive Staphylococcus aureus 449/11 after 18 hrs by twofold serial agar dilution technique; settings: 449/11, 18 h
[27] = test system: Staphylococcus aureus; assay: Antibacterial activity against hospital-acquired methicillin-sensitive Staphylococcus aureus 445/11 after 18 hrs by twofold serial agar dilution technique; settings: 445/11, 18 h
[28] = test system: Escherichia coli; assay: Antibacterial activity against Escherichia coli ATCC 25922 after 18 hrs by twofold serial agar dilution technique
[29] = test system: Pseudomonas aeruginosa; assay: Antibacterial activity against Pseudomonas aeruginosa ATCC 15442 after 18 hrs by twofold serial agar dilution technique
[30] = test system: Staphylococcus aureus; assay: Antibacterial activity against hospital-acquired methicillin-resistant Staphylococcus aureus 452/11 after 18 hrs by twofold serial agar dilution technique; settings: 452/11, 18 h
[31] = test system: Pseudomonas aeruginosa; assay: Antibacterial activity against Pseudomonas aeruginosa NCTC 6749 after 18 hrs by twofold serial agar dilution technique
[32] = test system: Staphylococcus aureus; assay: Antibacterial activity against hospital-acquired methicillin-resistant Staphylococcus aureus 393/10 after 18 hrs by twofold serial agar dilution technique; settings: 393/10, 18 h
[33] = test system: Escherichia coli; assay: Antibacterial activity against Escherichia coli NCTC 8196 after 18 hrs by twofold serial agar dilution technique
[34] = test system: Escherichia coli; assay: Antibacterial activity against Escherichia coli ATCC 10538 after 18 hrs by twofold serial agar dilution technique
[35] = test system: Staphylococcus aureus; assay: Antibacterial activity against Staphylococcus aureus ATCC 25923 assessed as zone of inhibition at 400 ug/disc after 18 hrs by disc diffusion method; settings: ATCC 25923, 18 h, read-out: DIZ
[36] = test system: Staphylococcus aureus; assay: Antibacterial activity against hospital-acquired methicillin-resistant Staphylococcus aureus 482/11 after 18 hrs by twofold serial agar dilution technique; settings: 482/11, 18 h
[37] = test system: Staphylococcus aureus; assay: Antibacterial activity against hospital-acquired methicillin-resistant Staphylococcus aureus 394/10 after 18 hrs by twofold serial agar dilution technique; settings: 394/10, 18 h
[38] = test system: Candida albicans; assay: Antifungal activity against Candida albicans ATCC 90028 after 24 hrs by twofold serial agar dilution technique
[39] = test system: Staphylococcus aureus; assay: Antibacterial activity against hospital-acquired methicillin-resistant Staphylococcus aureus 450/11 after 18 hrs by twofold serial agar dilution technique; settings: 450/11, 18 h
[40] = test system: Staphylococcus aureus; assay: Antibacterial activity against hospital-acquired methicillin-resistant Staphylococcus aureus 401/10 after 18 hrs by twofold serial agar dilution technique; settings: 401/10, 18 h
[41] = test system: Staphylococcus aureus; assay: Antibacterial activity against Staphylococcus aureus ATCC 6538 after 18 hrs by twofold serial agar dilution technique; settings: ATCC 6538, 18 h
[42] = test system: Candida albicans; assay: Antifungal activity against Candida albicans ATCC 10231 after 24 hrs by twofold serial agar dilution technique
[43] = test system: Staphylococcus aureus; assay: Antibacterial activity against Staphylococcus aureus ATCC 29213 after 18 hrs by twofold serial agar dilution technique; settings: ATCC 29213, 18 h
[44] = test system: Staphylococcus aureus; assay: Antibacterial activity against methicillin-resistant Staphylococcus aureus clinical isolate

For `CC[C@@H](C(=O)[C@@H](C)[C@@H](O)[C@H](C)[C@@H]1O[C@@H]([C@@H](CC)C(=O)Nc2ccccc2)CC[C@@H]1C)[C@H]1O[C@]2(C=C[C@@H](O)[C@]3(CC[C@@](C)([C@H]4CC[C@](O)(CC)[C@H](C)O4)O3)O2)[C@H](C)C[C@@H]1C`, the Activity [1] was “inactive”, the MIC [2] was 4 µg/mL (≈ 4.84 µM) and the zone of inhibition at 400 µg/disc [3] was 21 mm. The MIC [4] was 4 µg/mL (≈ 4.84 µM), the zone of inhibition at 400 µg/disc [5] was 22 mm and the Activity [6] was “inactive”. For the same compound, the zone of inhibition at 400 µg/disc [7] was 20 mm, the zone of inhibition at 400 µg/disc [8] was 19 mm and the MIC [9] was 2 µg/mL (≈ 2.42 µM). For the same compound, the MIC [10] was 2 µg/mL (≈ 2.42 µM), the MIC [11] was 2 µg/mL (≈ 2.42 µM) and the MIC [12] was 2 µg/mL (≈ 2.42 µM). The MIC [13] was 4 µg/mL (≈ 4.84 µM), the Activity [14] was “inactive” and the MIC [15] was 2 µg/mL (≈ 2.42 µM). The zone of inhibition at 400 µg/disc [16] was 20 mm, the Activity [17] was “inactive” and the MIC [18] was 2 µg/mL (≈ 2.42 µM). The MIC [19] was 2 µg/mL (≈ 2.42 µM), the MIC [20] was 2 µg/mL (≈ 2.42 µM) and the MIC [21] was 2 µg/mL (≈ 2.42 µM). It also gave an MIC [22] of 4 µg/mL (≈ 4.84 µM), an MIC [23] of 4 µg/mL (≈ 4.84 µM) and an MIC [24] of 2 µg/mL (≈ 2.42 µM). It also gave an MIC [25] of 2 µg/mL (≈ 2.42 µM), an MIC [26] of 2 µg/mL (≈ 2.42 µM) and an MIC [27] of 2 µg/mL (≈ 2.42 µM). The Activity [28] was “inactive”, the Activity [29] was “inactive” and the MIC [30] was 4 µg/mL (≈ 4.84 µM). The Activity [31] was “inactive”, the MIC [32] was 4 µg/mL (≈ 4.84 µM) and the Activity [33] was “inactive”. The Activity [34] was “inactive”, the zone of inhibition at 400 µg/disc [35] was 18 mm and the MIC [36] was 4 µg/mL (≈ 4.84 µM). The MIC [37] was 4 µg/mL (≈ 4.84 µM), the Activity [38] was “inactive” and the MIC [39] was 4 µg/mL (≈ 4.84 µM). For the same compound, the MIC [40] was 4 µg/mL (≈ 4.84 µM), the MIC [41] was 2 µg/mL (≈ 2.42 µM) and the Activity [42] was “inactive”. The MIC [43] was 2 µg/mL (≈ 2.42 µM).

In the case of `CC[C@@H](C(=O)[C@@H](C)[C@@H](O)[C@H](C)[C@@H]1O[C@@H]([C@@H](CC)C(=O)O)CC[C@@H]1C)[C@H]1O[C@]2(C=C[C@@H](O)[C@]3(CC[C@@](C)([C@H]4CC[C@](O)(CC)[C@H](C)O4)O3)O2)[C@H](C)C[C@@H]1C` [SALINOMYCIN], the Activity [1] is reported as “inactive”, the MIC [2] is reported as 2 µg/mL (≈ 2.66 µM) and the zone of inhibition at 400 µg/disc [3] is reported as 29 mm. For the same compound, the MIC [4] was 1 µg/mL (≈ 1.33 µM), the zone of inhibition at 400 µg/disc [5] was 28 mm and the Activity [6] was “inactive”. The zone of inhibition at 400 µg/disc [7] was 30 mm, the zone of inhibition at 400 µg/disc [8] was 33 mm and the MIC [9] was 2 µg/mL (≈ 2.66 µM). It also gave an MIC [10] of 2 µg/mL (≈ 2.66 µM), an MIC [11] of 2 µg/mL (≈ 2.66 µM) and an MIC [12] of 1 µg/mL (≈ 1.33 µM). The MIC [13] was 1 µg/mL (≈ 1.33 µM), the Activity [14] was “inactive” and the MIC [15] was 2 µg/mL (≈ 2.66 µM). For the same compound, the zone of inhibition at 400 µg/disc [16] was 30 mm, the Activity [17] was “inactive” and the MIC [18] was 2 µg/mL (≈ 2.66 µM). For the same compound, the MIC [19] was 2 µg/mL (≈ 2.66 µM), the MIC [20] was 2 µg/mL (≈ 2.66 µM) and the MIC [21] was 1 µg/mL (≈ 1.33 µM). The MIC [22] was 2 µg/mL (≈ 2.66 µM), the MIC [23] was 1 µg/mL (≈ 1.33 µM) and the MIC [24] was 2 µg/mL (≈ 2.66 µM). For the same compound, the MIC [25] was 2 µg/mL (≈ 2.66 µM), the MIC [26] was 1 µg/mL (≈ 1.33 µM) and the MIC [27] was 1 µg/mL (≈ 1.33 µM). The Activity [28] was “inactive”, the Activity [29] was “inactive” and the MIC [30] was 1 µg/mL (≈ 1.33 µM). The Activity [31] was “inactive”, the MIC [32] was 2 µg/mL (≈ 2.66 µM) and the Activity [33] was “inactive”. The Activity [34] was “inactive”, the zone of inhibition at 400 µg/disc [35] was 31 mm and the MIC [36] was 2 µg/mL (≈ 2.66 µM). For the same compound, the MIC [37] was 2 µg/mL (≈ 2.66 µM), the Activity [38] was “inactive” and the MIC [39] was 2 µg/mL (≈ 2.66 µM). It also gave an MIC [40] of 1 µg/mL (≈ 1.33 µM), an MIC [44] of 1 µg/mL (≈ 1.33 µM) and an MIC [41] of 2 µg/mL (≈ 2.66 µM). For the same compound, the Activity [42] was “inactive” and the MIC [43] was 2 µg/mL (≈ 2.66 µM).

Source: ChEMBL document CHEMBL2046376, “Synthesis and antimicrobial activity of amide derivatives of polyether antibiotic-salinomycin” (2012)
